{
  "source": "the CheMixHub ionic liquid set",
  "assay": "xn = mol fraction of the nth substance listed",
  "conditions": "for viscosity: 100 kPa",
  "note": "± gives the uncertainty stated by the source.",
  "data": [
    {"smiles": "CCn1cc[n+](C)c1.C[C@H](O)C(=O)[O-]", "note": "+ O", "values": [
      {"measurement": "viscosity", "setting": "298.15 K, x2 = 0.3138", "value": "32.5 ± 0.3", "unit": "mPa·s"},
      {"measurement": "viscosity", "setting": "298.15 K, x2 = 0.9696", "value": "1.82 ± 0.02", "unit": "mPa·s"}
    ]},
    {"smiles": "C[S+](C)C.O=S(=O)([N-]S(=O)(=O)C(F)(F)F)C(F)(F)F", "note": "+ O=C1CCCO1", "values": [
      {"measurement": "electrical conductivity", "setting": "298.15 K, 101 kPa, x2 = 0.92", "value": "1.57 ± 0.063", "unit": "S/m"}
    ]},
    {"smiles": "CCCC[N+](C)(C)C.O=S(=O)([N-]S(=O)(=O)C(F)(F)F)C(F)(F)F", "note": "+ O=S(=O)([N-]S(=O)(=O)C(F)(F)F)C(F)(F)F.[Li+] + O", "values": [
      {"measurement": "viscosity", "setting": "293.15 K, x2 = 0.2745, x1 = 0.2745", "value": "100 ± 10", "unit": "mPa·s"},
      {"measurement": "viscosity", "setting": "293.15 K, x2 = 0.3106, x1 = 0.2745", "value": "150 ± 16", "unit": "mPa·s"},
      {"measurement": "viscosity", "setting": "293.15 K, x2 = 0.3509, x1 = 0.2745", "value": "264 ± 30", "unit": "mPa·s"},
      {"measurement": "viscosity", "setting": "293.15 K, x2 = 0.3868, x1 = 0.2745", "value": "341 ± 40", "unit": "mPa·s"},
      {"measurement": "viscosity", "setting": "293.15 K, x2 = 0.4308, x1 = 0.2745", "value": "494 ± 61", "unit": "mPa·s"},
      {"measurement": "viscosity", "setting": "298.15 K, x2 = 0.2745, x1 = 0.2745", "value": "78 ± 7.9", "unit": "mPa·s"},
      {"measurement": "viscosity", "setting": "298.15 K, x2 = 0.3106, x1 = 0.2745", "value": "115 ± 12", "unit": "mPa·s"},
      {"measurement": "viscosity", "setting": "298.15 K, x2 = 0.3509, x1 = 0.2745", "value": "192 ± 21", "unit": "mPa·s"},
      {"measurement": "viscosity", "setting": "298.15 K, x2 = 0.3868, x1 = 0.2745", "value": "245 ± 28", "unit": "mPa·s"},
      {"measurement": "viscosity", "setting": "298.15 K, x2 = 0.4308, x1 = 0.2745", "value": "401 ± 48", "unit": "mPa·s"},
      {"measurement": "viscosity", "setting": "303.15 K, x2 = 0.2745, x1 = 0.2745", "value": "59 ± 5.9", "unit": "mPa·s"},
      {"measurement": "viscosity", "setting": "303.15 K, x2 = 0.3106, x1 = 0.2745", "value": "88.9 ± 9.1", "unit": "mPa·s"},
      {"measurement": "viscosity", "setting": "303.15 K, x2 = 0.3509, x1 = 0.2745", "value": "145 ± 15", "unit": "mPa·s"},
      {"measurement": "viscosity", "setting": "303.15 K, x2 = 0.3868, x1 = 0.2745", "value": "182 ± 20", "unit": "mPa·s"},
      {"measurement": "viscosity", "setting": "303.15 K, x2 = 0.4308, x1 = 0.2745", "value": "289 ± 33", "unit": "mPa·s"},
      {"measurement": "viscosity", "setting": "313.15 K, x2 = 0.2745, x1 = 0.2745", "value": "38.1 ± 3.8", "unit": "mPa·s"},
      {"measurement": "viscosity", "setting": "313.15 K, x2 = 0.3106, x1 = 0.2745", "value": "53.9 ± 5.4", "unit": "mPa·s"},
      {"measurement": "viscosity", "setting": "313.15 K, x2 = 0.3509, x1 = 0.2745", "value": "87.4 ± 8.9", "unit": "mPa·s"},
      {"measurement": "viscosity", "setting": "313.15 K, x2 = 0.3868, x1 = 0.2745", "value": "106 ± 11", "unit": "mPa·s"},
      {"measurement": "viscosity", "setting": "313.15 K, x2 = 0.4308, x1 = 0.2745", "value": "162 ± 17", "unit": "mPa·s"},
      {"measurement": "viscosity", "setting": "323.15 K, x2 = 0.2745, x1 = 0.2745", "value": "26.5 ± 2.7", "unit": "mPa·s"},
      {"measurement": "viscosity", "setting": "323.15 K, x2 = 0.3106, x1 = 0.2745", "value": "35.5 ± 3.6", "unit": "mPa·s"},
      {"measurement": "viscosity", "setting": "323.15 K, x2 = 0.3509, x1 = 0.2745", "value": "51 ± 5.1", "unit": "mPa·s"},
      {"measurement": "viscosity", "setting": "323.15 K, x2 = 0.3868, x1 = 0.2745", "value": "65.4 ± 6.6", "unit": "mPa·s"},
      {"measurement": "viscosity", "setting": "323.15 K, x2 = 0.4308, x1 = 0.2745", "value": "99 ± 10", "unit": "mPa·s"},
      {"measurement": "viscosity", "setting": "333.15 K, x2 = 0.2745, x1 = 0.2745", "value": "19 ± 1.9", "unit": "mPa·s"},
      {"measurement": "viscosity", "setting": "333.15 K, x2 = 0.3106, x1 = 0.2745", "value": "24.7 ± 2.5", "unit": "mPa·s"},
      {"measurement": "viscosity", "setting": "333.15 K, x2 = 0.3509, x1 = 0.2745", "value": "34.7 ± 3.5", "unit": "mPa·s"},
      {"measurement": "viscosity", "setting": "333.15 K, x2 = 0.3868, x1 = 0.2745", "value": "43.1 ± 4.3", "unit": "mPa·s"},
      {"measurement": "viscosity", "setting": "333.15 K, x2 = 0.4308, x1 = 0.2745", "value": "58.8 ± 5.9", "unit": "mPa·s"},
      {"measurement": "viscosity", "setting": "343.15 K, x2 = 0.2745, x1 = 0.2745", "value": "14.2 ± 1.4", "unit": "mPa·s"},
      {"measurement": "viscosity", "setting": "343.15 K, x2 = 0.3106, x1 = 0.2745", "value": "18.1 ± 1.8", "unit": "mPa·s"},
      {"measurement": "viscosity", "setting": "343.15 K, x2 = 0.3509, x1 = 0.2745", "value": "24.6 ± 2.5", "unit": "mPa·s"},
      {"measurement": "viscosity", "setting": "343.15 K, x2 = 0.3868, x1 = 0.2745", "value": "30.1 ± 3", "unit": "mPa·s"},
      {"measurement": "viscosity", "setting": "343.15 K, x2 = 0.4308, x1 = 0.2745", "value": "40.6 ± 4.1", "unit": "mPa·s"},
      {"measurement": "viscosity", "setting": "353.15 K, x2 = 0.2745, x1 = 0.2745", "value": "10.9 ± 1.1", "unit": "mPa·s"},
      {"measurement": "viscosity", "setting": "353.15 K, x2 = 0.3106, x1 = 0.2745", "value": "13.7 ± 1.4", "unit": "mPa·s"},
      {"measurement": "viscosity", "setting": "353.15 K, x2 = 0.3509, x1 = 0.2745", "value": "18.2 ± 1.8", "unit": "mPa·s"},
      {"measurement": "viscosity", "setting": "353.15 K, x2 = 0.3868, x1 = 0.2745", "value": "21.3 ± 2.1", "unit": "mPa·s"},
      {"measurement": "viscosity", "setting": "353.15 K, x2 = 0.4308, x1 = 0.2745", "value": "28.8 ± 2.9", "unit": "mPa·s"},
      {"measurement": "viscosity", "setting": "363.15 K, x2 = 0.2745, x1 = 0.2745", "value": "8.61 ± 0.87", "unit": "mPa·s"},
      {"measurement": "viscosity", "setting": "363.15 K, x2 = 0.3106, x1 = 0.2745", "value": "10.6 ± 1.1", "unit": "mPa·s"},
      {"measurement": "viscosity", "setting": "363.15 K, x2 = 0.3509, x1 = 0.2745", "value": "13.9 ± 1.4", "unit": "mPa·s"},
      {"measurement": "viscosity", "setting": "363.15 K, x2 = 0.3868, x1 = 0.2745", "value": "16.5 ± 1.7", "unit": "mPa·s"},
      {"measurement": "viscosity", "setting": "363.15 K, x2 = 0.4308, x1 = 0.2745", "value": "21.2 ± 2.1", "unit": "mPa·s"}
    ]}
  ]
}
